Source: ChEMBL document CHEMBL2401651, “Discovery of novel P2 substituted 4-biaryl proline inhibitors of hepatitis C virus NS3 serine protease” (Bioorg Med Chem Lett, 2013)

Assays:
Hepatitis C virus = assay: Antiviral activity against Hepatitis C virus infected in human […] cells after 72 hrs by luciferase reporter gene assay; assay type: functional, organism-based, Hepacivirus hominis
[1] = Inhibition of Hepatitis C virus genotype 1 NS3 protease
[2] = Half life in human liver microsomes; assay type: ADME, Microsome
[3] = Permeability of the compound in human Caco2 cells; assay type: ADME, cell-based; settings: Caco-2, read-out: permeability

Row | EC50 (Hepatitis C virus) | IC50 [1] | half-life [2] | Papp [3] | Structure (SMILES) | Ki [1]
1 | 800 nM | 6 nM | – | – | C=C[C@@H]1C[C@]1(NC(=O)[C@@H]1C[C@@H](c2csc(-c3ccccc3C)n2)CN1C(=O)[C@@H](NC(=O)OC1CCCC1)C(C)(C)C)C(=O)NS(=O)(=O)C1CC1 | –
2 | 530 nM | 5.2 nM | – | – | C=C[C@@H]1C[C@]1(NC(=O)[C@@H]1C[C@@H](c2csc(-c3ccc(OC)cc3)n2)CN1C(=O)[C@@H](NC(=O)OC1CCCC1)C(C)(C)C)C(=O)NS(=O)(=O)C1CC1 | –
3 | 35 nM | 0.74 nM | – | – | C=C[C@@H]1C[C@]1(NC(=O)[C@@H]1C[C@@H](c2csc(-c3ccccc3OC)n2)CN1C(=O)[C@@H](NC(=O)OC1CCCC1)C(C)(C)C)C(=O)NS(=O)(=O)C1CC1 | –
4 | 240 nM | 4.1 nM | – | – | C=C[C@@H]1C[C@]1(NC(=O)[C@@H]1C[C@@H](c2csc(-c3cccc(OC)c3OC)n2)CN1C(=O)[C@@H](NC(=O)OC1CCCC1)C(C)(C)C)C(=O)NS(=O)(=O)C1CC1 | –
5 | 27 nM | 1.7 nM | – | – | C=C[C@@H]1C[C@]1(NC(=O)[C@@H]1C[C@@H](c2csc(-c3cc(C)ccc3OC)n2)CN1C(=O)[C@@H](NC(=O)OC1CCCC1)C(C)(C)C)C(=O)NS(=O)(=O)C1CC1 | –
6 | 140 nM | 3.4 nM | – | – | C=C[C@@H]1C[C@]1(NC(=O)[C@@H]1C[C@@H](c2csc(-c3cccc(OC)c3)n2)CN1C(=O)[C@@H](NC(=O)OC1CCCC1)C(C)(C)C)C(=O)NS(=O)(=O)C1CC1 | –
7 | 915 nM | 12 nM | – | – | C=C[C@@H]1C[C@]1(NC(=O)[C@@H]1C[C@@H](c2csc(-c3cccnc3)n2)CN1C(=O)[C@@H](NC(=O)OC1CCCC1)C(C)(C)C)C(=O)NS(=O)(=O)C1CC1 | –
8 | 37 nM | 0.78 nM | – | – | C=C[C@@H]1C[C@]1(NC(=O)[C@@H]1C[C@@H](c2csc(-c3ccccc3OCC)n2)CN1C(=O)[C@@H](NC(=O)OC1CCCC1)C(C)(C)C)C(=O)NS(=O)(=O)C1CC1 | –
9 | 1340 nM | 1.8 nM | 3.68 h | 0.2 ×10⁻⁶ cm/s | C=C[C@@H]1C[C@]1(NC(=O)[C@@H]1C[C@@H](n2cnc(-c3ccccc3)c2)CN1C(=O)[C@@H](NC(=O)OC1CCCC1)C(C)(C)C)C(=O)NS(=O)(=O)C1CC1 | –
10 | 2200 nM | 17 nM | – | – | C=C[C@@H]1C[C@]1(NC(=O)[C@@H]1C[C@@H](c2csc(-c3c(OC)cccc3OC)n2)CN1C(=O)[C@@H](NC(=O)OC1CCCC1)C(C)(C)C)C(=O)NS(=O)(=O)C1CC1 | –
11 | 16 nM | 0.9 nM | 1.15 h | 7 ×10⁻⁶ cm/s | C=C[C@@H]1C[C@]1(NC(=O)[C@@H]1C[C@@H](c2csc(-c3cc(OC)ccc3OC)n2)CN1C(=O)[C@@H](NC(=O)OC1CCCC1)C(C)(C)C)C(=O)NS(=O)(=O)C1CC1 | 0.23 nM
12 | 175 nM | 2.7 nM | 2.25 h | 4.6 ×10⁻⁶ cm/s | C=C[C@@H]1C[C@]1(NC(=O)[C@@H]1C[C@@H](c2csc(-c3ccccc3)n2)CN1C(=O)[C@@H](NC(=O)OC1CCCC1)C(C)(C)C)C(=O)NS(=O)(=O)C1CC1 | –
13 | 235 nM | 1.8 nM | – | – | C=C[C@@H]1C[C@]1(NC(=O)[C@@H]1C[C@@H](c2csc(-c3ccccc3F)n2)CN1C(=O)[C@@H](NC(=O)OC1CCCC1)C(C)(C)C)C(=O)NS(=O)(=O)C1CC1 | –
14 | 430 nM | 2.7 nM | 1.57 h | 1.1 ×10⁻⁶ cm/s | C=C[C@@H]1C[C@]1(NC(=O)[C@@H]1C[C@@H](n2cc(-c3ccccc3)nn2)CN1C(=O)[C@@H](NC(=O)OC1CCCC1)C(C)(C)C)C(=O)NS(=O)(=O)C1CC1 | –
15 | 28 nM | 1.1 nM | – | – | C=C[C@@H]1C[C@]1(NC(=O)[C@@H]1C[C@@H](c2csc(-c3cc(F)ccc3OC)n2)CN1C(=O)[C@@H](NC(=O)OC1CCCC1)C(C)(C)C)C(=O)NS(=O)(=O)C1CC1 | –
16 | 9 nM | 1.1 nM | 0.95 h | 12 ×10⁻⁶ cm/s | C=C[C@@H]1C[C@]1(NC(=O)[C@@H]1C[C@@H](c2csc(-c3cc(OC)ccc3OC)n2)CN1C(=O)[C@@H](NC(=O)OC1CCCC1)C(C)(C)C)C(=O)NS(=O)(=O)C1(C)CC1 | –
17 | 320 nM | 2.5 nM | 0.1 h | 0.7 ×10⁻⁶ cm/s | C=C[C@@H]1C[C@]1(NC(=O)[C@@H]1C[C@@H](n2cc(-c3ccccc3)c(C)n2)CN1C(=O)[C@@H](NC(=O)OC1CCCC1)C(C)(C)C)C(=O)NS(=O)(=O)C1CC1 | –
18 | 89 nM | 2.2 nM | – | – | C=C[C@@H]1C[C@]1(NC(=O)[C@@H]1C[C@@H](c2csc(-c3ccc(OC)cc3OC)n2)CN1C(=O)[C@@H](NC(=O)OC1CCCC1)C(C)(C)C)C(=O)NS(=O)(=O)C1CC1 | –
19 | 580 nM | 3.2 nM | 2.38 h | 4.4 ×10⁻⁶ cm/s | C=C[C@@H]1C[C@]1(NC(=O)[C@@H]1C[C@@H](c2nc(-c3ccccc3)cs2)CN1C(=O)[C@@H](NC(=O)OC1CCCC1)C(C)(C)C)C(=O)NS(=O)(=O)C1CC1 | –
